According to paper PMC9116245, “New 1,2,3-triazole linked ciprofloxacin-chalcones induce DNA damage by inhibiting human topoisomerase I& II and tubulin polymerization” (Journal of Enzyme Inhibition and Medicinal Chemistry, 2022):

Experiments:
Experiment in all cases: NCI one-dose screen
OVCAR-5 = type: cell-based; settings: Homo sapiens; OVCAR-5, 10 µM; read-out: Growth Percent
How it was run: (§1)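 The NCI ran this in vitro antitumor screen on 59 human cancer lines from nine tissue subpanels, with each compound applied once at 10 µM. Growth percent is reported.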

TK-10 = type: cell-based; settings: Homo sapiens; TK-10, 10 µM; read-out: Growth Percent
How it was run: as §1

MALME-3M = type: cell-based; settings: Homo sapiens, read-out: Growth Percent
How it was run: as §1

HOP-92 = type: cell-based; settings: Homo sapiens; HOP-92, 10 µM; read-out: Growth Percent
How it was run: as §1

UO-31 = type: cell-based; settings: Homo sapiens; UO-31, 10 µM; read-out: Growth Percent
How it was run: as §1

786-0 = type: cell-based; settings: Homo sapiens; 786-0, 10 µM; read-out: Growth Percent
How it was run: as §1

SNB-19 = type: cell-based; settings: Homo sapiens; SNB-19, 10 µM; read-out: Growth Percent
How it was run: as §1

SK-OV-3 = type: cell-based; settings: Homo sapiens; SK-OV-3, 10 µM; read-out: Growth Percent
How it was run: as §1

NCI/ADR-RES = type: cell-based; settings: Homo sapiens, read-out: Growth Percent
How it was run: as §1

HOP-62 = type: cell-based; settings: Homo sapiens; HOP-62, 10 µM; read-out: Growth Percent
How it was run: as §1

CAKI-1 = type: cell-based; settings: Homo sapiens; CAKI-1, 10 µM; read-out: Growth Percent
How it was run: as §1

RXF 393 = type: cell-based; settings: Homo sapiens; RXF 393, 10 µM; read-out: Growth Percent
How it was run: as §1

K-562 = type: cell-based; settings: Homo sapiens, K562; K-562, 10 µM; read-out: Growth Percent
How it was run: as §1

COLO 205 = type: cell-based; settings: Homo sapiens; COLO 205, 10 µM; read-out: Growth Percent
How it was run: as §1

HS 578T = type: cell-based; settings: Homo sapiens, read-out: Growth Percent
How it was run: as §1

UACC-62 = type: cell-based; settings: Homo sapiens; UACC-62, 10 µM; read-out: Growth Percent
How it was run: as §1

SK-MEL-5 = type: cell-based; settings: Homo sapiens; SK-MEL-5, 10 µM; read-out: Growth Percent
How it was run: as §1

IGROV1 = type: cell-based; settings: Homo sapiens, IGROV-1; IGROV1, 10 µM; read-out: Growth Percent
How it was run: as §1

OVCAR-4 = type: cell-based; settings: Homo sapiens; OVCAR-4, 10 µM; read-out: Growth Percent
How it was run: as §1

PC-3 = type: cell-based; settings: Homo sapiens; PC-3, 10 µM; read-out: Growth Percent
How it was run: as §1

HL-60(TB) = type: cell-based; settings: Homo sapiens, read-out: Growth Percent
T-47D = type: cell-based; settings: Homo sapiens, T47D, read-out: Growth Percent
How it was run: as §1

BT-549 = type: cell-based; settings: Homo sapiens; BT-549, 10 µM; read-out: Growth Percent
How it was run: as §1

SK-MEL-2 = type: cell-based; settings: Homo sapiens; SK-MEL-2, 10 µM; read-out: Growth Percent
How it was run: as §1

MDA-MB-231/ATCC = type: cell-based; settings: Homo sapiens, read-out: Growth Percent
How it was run: as §1

HCT-116 = type: cell-based, human; settings: HCT-116, 10 µM; for activity at 10 µM: Homo sapiens, read-out: Growth Percent
Method: (§2) For screening of anticancer properties, all the developed compounds were chosen by the (NCI) for in-vitro antitumor evaluation. The assay was carried out using 59 human cancer cell lines obtained from nine tumour subpanels (breast, ovarian, melanoma, leukaemia, renal, CNS, lung, prostate, and colon cancer cell lines). Compounds were assessed at a 10 µM concentration. […] Also, hybrids 4a, 4b, 4e, 4i and 4j produced significant anti-proliferative effect in several cancer cells, particularly in leukaemia (RPMI-8226) and colon (HCT116) cells with growth percent of 47.87, −14.59, −24.56, −24.42, −15.84, −9.74, −53.36, −10.26, −31.29, and −39.51%, respectively.
(§3) The method description for NCI anticancer screening is provided in detail in the standard NCI-60 testing protocol.

RPMI-8226 = type: cell-based, human; settings: RPMI-8226, 10 µM; for activity at 10 µM: Homo sapiens, read-out: Growth Percent
Method: as §2, §3

SMILES	activity at 10 µM (OVCAR-5)	activity at 10 µM (TK-10)	activity at 10 µM (MALME-3M)	activity at 10 µM (HOP-92)	activity at 10 µM (UO-31)	activity at 10 µM (786-0)	activity at 10 µM (SNB-19)	activity at 10 µM (SK-OV-3)	activity at 10 µM (NCI/ADR-RES)	activity at 10 µM (HOP-62)	activity at 10 µM (CAKI-1)	activity at 10 µM (RXF 393)	activity at 10 µM (K-562)	activity at 10 µM (COLO 205)	activity at 10 µM (HS 578T)	activity at 10 µM (UACC-62)	activity at 10 µM (SK-MEL-5)	activity at 10 µM (IGROV1)	activity at 10 µM (OVCAR-4)	activity at 10 µM (PC-3)	other results
O=C(/C=C/c1ccc(Cl)cc1)c1ccc(-n2cc(CN3CCN(c4cc5c(cc4F)c(=O)c(C(=O)O)cn5C4CC4)CC3)nn2)cc1 [Compound 4c, (E)-7-(4-((1-(4-(3-(4-chlorophenyl)acryloyl)phenyl)-1H-1,2,3-triazol-4-yl)methyl)piperazin-1-yl)-1-cyclopropyl-6-fluoro-4-oxo-1,4-dihydroquinoline-3-carboxylic acid]	92.2%	83.3%	91.2%	79.6%	62.5%	54.2%	72%	80%	87%	79.6%	61.4%	58.3%	56%	108%	67.4%	73.8%	77.6%	84%	89.7%	79.3%	activity at 10 µM (HL-60(TB)): 99.1%; activity at 10 µM (T-47D): 92.9%; activity at 10 µM (BT-549): 76.7%; activity at 10 µM (SK-MEL-2): 96.8%; activity at 10 µM (MDA-MB-231/ATCC): 89.4%; activity at 10 µM (HCT-116): 6.95%; activity at 10 µM (RPMI-8226): -0.51%
Cc1ccc(/C=C/C(=O)c2ccc(-n3cc(CN4CCN(c5cc6c(cc5F)c(=O)c(C(=O)O)cn6C5CC5)CC4)nn3)cc2)cc1 [Compound 4f, (E)-1-cyclopropyl-6-fluoro-4-oxo-7-(4-((1-(4-(3-(p-tolyl)acryloyl)phenyl)-1H-1,2,3-triazol-4-yl)methyl)piperazin-1-yl)-1,4-dihydroquinoline-3-carboxylic acid]	99.5%	91.4%	102%	84.6%	65.7%	76.7%	86.9%	78.4%	102%	87.4%	64.4%	88.4%	51.5%	107%	83.6%	83%	91.1%	74.2%	91.4%	82%	activity at 10 µM (HL-60(TB)): 94.3%; activity at 10 µM (T-47D): 80%; activity at 10 µM (BT-549): 81.3%; activity at 10 µM (SK-MEL-2): 97.2%; activity at 10 µM (MDA-MB-231/ATCC): 80.1%; activity at 10 µM (HCT-116): 7.82%; activity at 10 µM (RPMI-8226): 34.2%
O=C(/C=C/c1cccc(Cl)c1)c1ccc(-n2cc(CN3CCN(c4cc5c(cc4F)c(=O)c(C(=O)O)cn5C4CC4)CC3)nn2)cc1 [Compound 4b, (E)-7-(4-((1–(4-(3-(3-chlorophenyl)acryloyl)phenyl)-1H-1,2,3-triazol-4-yl)methyl)piperazin-1-yl)-1-cyclopropyl-6-fluoro-4-oxo-1,4-dihydroquinoline-3-carboxylic acid]	84.7%	84.9%	94.5%	79.3%	52.6%	53.9%	53.8%	72.3%	94.2%	67.7%	52.5%	70.8%	40.5%	106%	73.7%	61.2%	78.7%	51.8%	62.9%	74%	activity at 10 µM (HL-60(TB)): 90.3%; activity at 10 µM (T-47D): 75.3%; activity at 10 µM (BT-549): 90.4%; activity at 10 µM (SK-MEL-2): 93%; activity at 10 µM (MDA-MB-231/ATCC): 73.6%; Growth Percent (HCT-116): -53.36%; activity at 10 µM (HCT-116): -53.4%; activity at 10 µM (RPMI-8226): -14.6%; Growth Percent (RPMI-8226): -14.59%
COc1ccc(/C=C/C(=O)c2ccc(-n3cc(CN4CCN(c5cc6c(cc5F)c(=O)c(C(=O)O)cn6C5CC5)CC4)nn3)cc2)cc1OC [Compound 4i, (E)-1-cyclopropyl-7-(4-((1-(4-(3–(3,4-dimethoxyphenyl)acryloyl)phenyl)-1H-1,2,3-triazol-4-yl)methyl)piperazin-1-yl)-6-fluoro-4-oxo-1,4-dihydroquinoline-3-carboxylic acid]	92.1%	104%	66.2%	66.5%	54.9%	71.9%	67.7%	76.9%	90.7%	75.6%	67.8%	64.2%	42.5%	98.2%	52.8%	53.9%	69%	26.6%	88%	56.3%	activity at 10 µM (HL-60(TB)): 85.9%; activity at 10 µM (T-47D): 78.6%; activity at 10 µM (BT-549): 65.8%; activity at 10 µM (SK-MEL-2): 97%; activity at 10 µM (MDA-MB-231/ATCC): 67.2%; Growth Percent (HCT-116): -31.29%; activity at 10 µM (HCT-116): -31.3%; activity at 10 µM (RPMI-8226): -24.4%; Growth Percent (RPMI-8226): -24.42%
